Results as given in patent US6750219B1, “Ω-amino-α-hydroxycarboxylic acid derivatives having integrin ανβ3 antagonistic activity” (Meiji Seika Kaisha, Ltd., priority 1999, dated 2004).

How the values were obtained:
[1] = target: T1, integrin αvβ3 (vitronectin receptor purified from the human placenta) (Homo sapiens, UniProt P05106+P06756); test: αvβ3 binding assay (vitronectin-vitronectin receptor binding assay); settings: vitronectin binding to vitronectin receptor purified from human placenta; read-out: integrin αvβ3 antagonistic activity (IC50)
T1 construct: a vitronectin receptor (protein content: 118 mg/ml) purified from the human placenta; from tissue; host or cells: human placenta
T1 sequence (P06756 31-889 limits assumed): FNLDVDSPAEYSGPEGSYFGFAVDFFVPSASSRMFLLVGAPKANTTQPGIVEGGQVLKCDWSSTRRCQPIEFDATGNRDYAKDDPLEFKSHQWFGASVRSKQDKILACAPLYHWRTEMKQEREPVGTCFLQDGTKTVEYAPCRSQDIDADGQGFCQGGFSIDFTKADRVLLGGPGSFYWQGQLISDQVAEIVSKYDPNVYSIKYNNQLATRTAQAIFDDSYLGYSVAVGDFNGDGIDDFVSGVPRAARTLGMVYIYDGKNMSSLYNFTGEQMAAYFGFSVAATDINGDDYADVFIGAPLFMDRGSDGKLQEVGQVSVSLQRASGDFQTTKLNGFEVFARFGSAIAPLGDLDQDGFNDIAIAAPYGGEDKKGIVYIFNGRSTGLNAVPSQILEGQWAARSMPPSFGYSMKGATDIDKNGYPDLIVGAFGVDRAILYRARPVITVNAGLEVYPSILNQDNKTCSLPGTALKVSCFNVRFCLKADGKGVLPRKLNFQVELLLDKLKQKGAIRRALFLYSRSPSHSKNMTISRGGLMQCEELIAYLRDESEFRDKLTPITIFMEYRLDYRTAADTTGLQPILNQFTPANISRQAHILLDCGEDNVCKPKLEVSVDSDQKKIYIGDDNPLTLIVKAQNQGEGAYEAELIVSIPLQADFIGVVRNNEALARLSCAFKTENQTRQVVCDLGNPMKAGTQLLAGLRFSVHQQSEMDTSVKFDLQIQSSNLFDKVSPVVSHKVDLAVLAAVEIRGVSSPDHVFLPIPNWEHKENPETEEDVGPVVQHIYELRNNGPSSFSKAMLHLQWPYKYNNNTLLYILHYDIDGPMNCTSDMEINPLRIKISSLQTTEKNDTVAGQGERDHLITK
T1 sequence (P06756 891-1048 limits assumed): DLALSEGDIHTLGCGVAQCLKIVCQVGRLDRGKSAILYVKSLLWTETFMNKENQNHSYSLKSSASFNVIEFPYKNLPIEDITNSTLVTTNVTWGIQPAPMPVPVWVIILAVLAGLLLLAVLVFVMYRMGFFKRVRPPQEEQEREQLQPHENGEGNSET
T1 sequence (P05106 27-788): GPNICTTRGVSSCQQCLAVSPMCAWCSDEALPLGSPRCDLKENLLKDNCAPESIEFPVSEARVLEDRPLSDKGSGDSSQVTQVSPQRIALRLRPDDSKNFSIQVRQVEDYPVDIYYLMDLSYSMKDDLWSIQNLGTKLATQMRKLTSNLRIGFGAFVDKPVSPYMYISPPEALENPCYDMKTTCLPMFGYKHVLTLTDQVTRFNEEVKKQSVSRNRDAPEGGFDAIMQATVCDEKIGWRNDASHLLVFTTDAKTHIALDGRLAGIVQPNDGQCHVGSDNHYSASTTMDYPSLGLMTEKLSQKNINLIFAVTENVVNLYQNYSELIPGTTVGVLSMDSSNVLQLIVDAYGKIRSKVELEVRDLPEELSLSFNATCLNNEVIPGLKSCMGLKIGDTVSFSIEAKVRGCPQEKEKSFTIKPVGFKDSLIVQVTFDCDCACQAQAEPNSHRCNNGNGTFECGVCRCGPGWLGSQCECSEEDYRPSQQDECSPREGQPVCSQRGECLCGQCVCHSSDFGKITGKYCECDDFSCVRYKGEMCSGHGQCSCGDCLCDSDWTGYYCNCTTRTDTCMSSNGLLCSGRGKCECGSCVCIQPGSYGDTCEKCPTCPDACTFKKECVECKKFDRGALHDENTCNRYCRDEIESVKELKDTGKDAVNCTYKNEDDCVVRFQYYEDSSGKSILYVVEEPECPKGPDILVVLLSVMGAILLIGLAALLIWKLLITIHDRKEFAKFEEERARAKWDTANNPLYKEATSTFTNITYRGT
Experimental: Pharmacological Test Example 1: αvβ3 Binding Assay
Integrin αvβ3 antagonistic activity was first measured in a vitronectin-vitronectin receptor binding assay system in accordance with the method of Kouns et al. (W. C. Kouns, D. Kirchhofer, P. Hadvary, A. Edenhofer, T. Weller, G. Pfenninger, H. R. Baumgartner, L. K. Jennings and B. Steiner, Blood, 80, 2539-2547 (1992)). […] A 0.1 M citric acid buffer (pH 4.3) containing 0.05% NaN3 was added in an amount of […] to stop the reaction, followed by the measurement of the absorbance at 415 nm with a microplate reader (MTP 32, Corona Electric) (reference: 675 nm). The total binding was defined as the absorbance after a reaction using 50 ml of TBS-Tween instead of the test compound, and the non-specific binding (100% inhibition) was defined as the absorbance after a reaction using 50 ml of TBS-Tween containing 2×10^−3 M RGDS. The inhibition was calculated by the following equation: [formula]
IC50 was determined from a primary regression line of the logarithm of each concentration of the test compound and the logarithm of (100-inhibition)/inhibition.

GP IIb/IIIa = GP IIb/IIIa (Homo sapiens, UniProt P05106+P08514); test: GP IIb/IIIa antagonistic activity (Pharmacological Test 2 in WO 94/21599); type: binding
GP IIb/IIIa, sequence (P08514 32-887 limits assumed): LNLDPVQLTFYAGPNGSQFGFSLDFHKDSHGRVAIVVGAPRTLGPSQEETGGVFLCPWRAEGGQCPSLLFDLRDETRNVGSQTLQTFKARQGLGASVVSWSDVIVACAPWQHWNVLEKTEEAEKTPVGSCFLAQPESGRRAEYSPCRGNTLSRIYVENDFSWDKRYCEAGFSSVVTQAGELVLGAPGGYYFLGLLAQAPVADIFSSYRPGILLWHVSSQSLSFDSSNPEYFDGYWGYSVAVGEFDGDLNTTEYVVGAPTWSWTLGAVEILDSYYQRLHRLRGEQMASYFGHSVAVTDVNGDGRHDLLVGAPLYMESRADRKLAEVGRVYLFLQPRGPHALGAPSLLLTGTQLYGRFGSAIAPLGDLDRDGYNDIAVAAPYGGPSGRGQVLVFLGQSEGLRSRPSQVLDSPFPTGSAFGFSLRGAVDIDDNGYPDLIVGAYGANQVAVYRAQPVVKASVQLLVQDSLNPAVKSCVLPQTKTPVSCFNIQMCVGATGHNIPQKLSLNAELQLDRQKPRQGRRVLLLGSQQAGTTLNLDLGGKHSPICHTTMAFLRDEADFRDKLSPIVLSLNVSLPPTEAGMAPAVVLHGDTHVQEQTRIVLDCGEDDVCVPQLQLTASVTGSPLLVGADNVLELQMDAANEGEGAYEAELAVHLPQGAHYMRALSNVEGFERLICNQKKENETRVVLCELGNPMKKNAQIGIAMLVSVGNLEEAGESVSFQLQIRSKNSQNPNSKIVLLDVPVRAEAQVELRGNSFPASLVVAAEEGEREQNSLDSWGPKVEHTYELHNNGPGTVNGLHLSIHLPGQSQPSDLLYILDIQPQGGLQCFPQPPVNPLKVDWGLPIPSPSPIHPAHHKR
GP IIb/IIIa, sequence (P08514 891-1039 limits assumed): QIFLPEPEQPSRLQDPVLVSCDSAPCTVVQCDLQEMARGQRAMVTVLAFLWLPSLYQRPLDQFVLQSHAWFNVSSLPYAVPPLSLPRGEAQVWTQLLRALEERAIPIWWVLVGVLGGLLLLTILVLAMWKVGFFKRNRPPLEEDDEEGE
GP IIb/IIIa, sequence (P05106 27-788): as the sequence (P05106 27-788) above
Experimental: Pharmacological Test Example 2: GP IIb/IIIa Antagonistic Activity and Human Platelet Aggregation Inhibitory Activity
GP IIb/IIIa antagonistic activity was measured for the compounds according to the present invention. The measurement of the GP IIb/IIIa antagonistic activity was carried out according to the method described in Pharmacological Test 2 in WO 94/21599.

solubility in water = type: physicochemical; settings: dihydrochloride; data omitted

Row | Structure (SMILES) | IC50 [1] | IC50 (GP IIb/IIIa) | solubility in water (solubility in water)
1 | O=C(NC[C@H](O)C(=O)O)c1ccc(N2CCC(NC3=NCCCN3)CC2)cc1 [Example 6, (2S)-Hydroxy-3-[4-{4-(1,4,5,6-tetrahydropyrimidin-2-ylamino)piperidin-1-yl}benzoylamino]-propionic acid] | 23 nM | 4.8 nM | soluble in water
2 | O=C(NC[C@H](O)C(=O)O)c1ccc(N2CCC(NC3=NCCCN3)CC2)c(F)c1 [Example 14, 3-[3-Fluoro-4-{4-(1,4,5,6-tetrahydropyrimidin-2-ylamino)piperidin-1-yl}benzoylamino]-(2S)-hydroxypropionic acid] | 2.8 nM | 12 nM | soluble in water
